Measurements published in US5610025A, “Inhibition of interfering endogenous enzyme activity in assays of biological fluids” (Actimed Laboratories, Inc., priority 1993, dated 1997).
Values joined by “and” are separate entries in the source; they are usually repeats but may differ in a detail not shown here. Equal entries are not always repeated. Structures can show the parent of a compound that is named as a salt. Values belong to the molecule of their own block, whether it stands above or below them.

Columns and labels:
Format in all cases: biochemical
[1] = target: T1, catalase (Homo sapiens, UniProt P04040); test: Catalase inhibitor screening, aqueous hydrogen peroxide samples with added catalase, dye indicator/peroxidase system, absorbance at 514 nm
T1 sequence (P04040 2-527 limits assumed): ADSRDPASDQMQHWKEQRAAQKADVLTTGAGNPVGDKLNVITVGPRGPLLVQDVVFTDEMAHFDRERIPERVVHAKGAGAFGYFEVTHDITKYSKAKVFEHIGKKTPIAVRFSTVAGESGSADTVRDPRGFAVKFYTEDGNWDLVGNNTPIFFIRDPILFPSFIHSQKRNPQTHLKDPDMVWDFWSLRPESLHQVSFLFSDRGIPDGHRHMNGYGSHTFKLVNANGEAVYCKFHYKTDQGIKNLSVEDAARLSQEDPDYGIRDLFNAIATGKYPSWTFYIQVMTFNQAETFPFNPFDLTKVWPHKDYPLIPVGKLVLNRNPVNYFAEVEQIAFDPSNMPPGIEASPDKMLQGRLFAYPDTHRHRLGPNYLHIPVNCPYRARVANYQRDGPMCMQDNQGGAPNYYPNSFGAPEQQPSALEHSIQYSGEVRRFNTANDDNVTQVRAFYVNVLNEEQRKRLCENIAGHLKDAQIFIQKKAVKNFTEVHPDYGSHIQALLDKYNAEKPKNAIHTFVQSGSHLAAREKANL

[2] = target: T1, catalase; test: Catalase inhibitor screening, aqueous cholesterol sample 50 mg/dL with catalase, reporter system Primaquine/MBTH; conditions: aqueous cholesterol 50 mg/dL with catalase, inhibitor 0.5 mM
Description: (§1) The inhibitors were added along with the extra catalase, and spectrophotometric measurements at 514 nm were obtained.
(§2) The percent recovery of absorbance is defined as follows: [formula]
(§3) In the following tables, the concentrations of inhibitor substances are expressed as the final concentration in the reaction system after accounting for dilution factors.

[3] = target: T1, catalase; test: Catalase inhibitor screening, plasma cholesterol sample with catalase, reporter system Primaquine/MBTH; conditions: inhibitor 0.5 mM
Description: as §1, §2, §3

Structure (SMILES): O=[N+]([O-])[O-].O=[N+]([O-])[O-].[Cu+2] [Cupric nitrate]
% Recovery (of absorbance) [1]: 85%

Structure (SMILES): CCO [Ethanol]
% Recovery (of absorbance) [1]: 6%

Structure (SMILES): Cl.NO [Hydroxylamine HCl]
% Recovery (of absorbance) ([1]; HCl): 96% and 95% and 91% and 92% | % Recovery (of absorbance) [2]: 98% | % Recovery (of absorbance) [3]: 98%

Structure (SMILES): NO.NO.O=S(=O)(O)O [Hydroxylamine sulfate]
% Recovery (of absorbance) [1]: 99% and 95% and 90% and 97% and 91% | % Recovery (of absorbance) [2]: 96% | % Recovery (of absorbance) [3]: 99%

Structure (SMILES): CO [Methanol]
% Recovery (of absorbance) [1]: 7%

Structure (SMILES): [Cl][Ni][Cl] [Nickel (II) chloride]
% Recovery (of absorbance) [1]: 60%

% Recovery (of absorbance) ([1]; peroxide with catalase, inhibitor concentration 0.5 mM): 50% | % Recovery (of absorbance) ([1]; peroxide with catalase, inhibitor concentration 5 mM): 57% | % Recovery (of absorbance) ([1]; peroxide with catalase, inhibitor concentration 40 mM): 79%
Structure (SMILES): Oc1cccc(O)c1 [Resorcinol]

Structure (SMILES): [N-]=[N+]=[N-] [Sodium azide]
effectiveness as inhibitor of catalase activity (in words) [1]: most effective inhibitors of catalase activity

Structure (SMILES): [F-].[Na+] [Sodium fluoride]
% Recovery (of absorbance) [1]: 7%

Structure (SMILES): O=CO [Sodium formate]
% Recovery (of absorbance) [1]: 8%

Structure (SMILES): O=NO [Sodium nitrite]
% Recovery (of absorbance) [1]: 30%
